# Data: PubChem BioAssay AID540252 (Sanford-Burnham Center for Chemical Genomics, 2011)
# Calls of active or inactive are those of the source. How the calls were made is not given here.
# Target: glucose-6-phosphate dehydrogenase-6-phosphogluconolactonase (Plasmodium falciparum 3D7)
# Assay: inhibition of P. falciparum G6PD activity – biochemical, end-point NADPH detection, orthogonal assay, dose response (AID 540252)
# Details: purified PfG6PD enzyme, NADPH direct detection
row,Structure (SMILES),IC50
1,Cc1ccc2nc(SCC(=O)NC3CCCc4ccccc43)[nH]c2c1 (configuration not stated),> 80 µM (inactive)
2,CN(C)c1ncc(C2=C(Cl)C(=O)C(N3CCCC3)=C(Cl)C2=O)s1,> 80 µM (inactive)
3,O=C1Nc2ccccc2C(=O)C1(Cl)Cc1ccccc1 (configuration not stated),> 80 µM (inactive)
4,C=CCN1C=C2C(=O)C(C)(OC(=O)CCC(=O)OC)C(=O)C(Br)=C2C=C1c1ccc(OC)cc1 (configuration not stated),> 80 µM (inactive)
5,Cc1[nH]c2ccccc2c1/C=N/Nc1nncn1N,> 80 µM (inactive)
6,Cc1ccc(-c2c(C(=O)N/N=C/c3ccsc3)nnn2-c2nonc2N)cc1,> 80 µM (inactive)
7,O=c1[nH]c(NCCO)c(N=Cc2ccccc2)c(=O)[nH]1,> 80 µM (inactive)
8,O=C(Nc1nnc(S(=O)(=O)N2CCCCC2)s1)c1cccc(Br)c1,> 80 µM (inactive)
9,COc1cc(OC)c(C2CC(=O)N3CN(c4ccccc4)CSC3=C2C#N)cc1OC (configuration not stated),> 80 µM (inactive)
10,O=c1[nH]nc(CNc2ccc(O)cc2)c2ccccc12,> 80 µM (inactive)
11,Clc1cccc(Cl)c1CNc1ccc(N2CCCC2)cc1,> 80 µM (inactive)
12,Cc1ccc(-n2c(N)c(C(=O)N3CCN(C)CC3)sc2=S)cc1,55.2 µM
13,c1ccc(SSc2ccccn2)nc1,60.8 µM
14,CCOc1ccccc1NS(=O)(=O)c1c(C)noc1C,> 80 µM (inactive)
15,C[c-]1[c-](C)[c-](C)[c-](C)[c-]1C.[Fe].c1cc2nccc(N3CCCC3)[c-]2c1 (configuration not stated),> 80 µM (inactive)
16,CCOC(=O)c1c(C2COc3ccccc3O2)csc1NC(=O)c1ccco1 (configuration not stated),> 80 µM (inactive)
17,Cc1cc(O)c(-c2cc(O)c(C)cc2O)cc1O,> 80 µM (inactive)
18,COc1ccc(C(=O)Nc2sc3c(c2C(=O)O)CC(C)(C)OC3)cc1,> 80 µM (inactive)
19,COc1cccc(-c2c(C(=O)N/N=C/c3ccc(C)s3)nnn2-c2nonc2N)c1,> 80 µM (inactive)

row,Structure (SMILES),IC50
1,CC(C)c1nnc(NC(=O)c2sc3ccccc3c2Cl)s1,> 80 µM (inactive)
2,COc1cc(C(=O)O/N=C2\C=CC(=O)C=C2C)cc(OC)c1OC,> 80 µM (inactive)
3,C=CCN=c1scc(-c2ccco2)n1/N=C/c1ccc(O)c(O)c1O,> 80 µM (inactive)
4,CC(=O)OCCCNc1cc(Sc2nc3ccccc3s2)c2nonc2c1[N+](=O)[O-],> 80 µM (inactive)
5,C=CCSc1nnc(NC(=O)c2ccc(Cl)nc2)s1,> 80 µM (inactive)
6,COc1cccc(C2(c3cccc(OC)c3)CC2C(=O)Nc2ccc(F)cc2)c1 (configuration not stated),> 80 µM (inactive)
7,CC(C)c1cc2c(c(O)c1O)[C@@]13CCCC(C)(C)C1CC2OC3=O (some centres not stated),> 80 µM (inactive)
8,C/C(Cn1nnc([N+](=O)[O-])n1)=N\NC(=O)c1ccc(O)cc1,> 80 µM (inactive)
9,O=[N+]([O-])c1c(NCCO)cc(Sc2nc3ccccc3s2)c2nonc12,> 80 µM (inactive)
10,CC(C)c1nnc(NC(=O)c2cccc(-n3cnnn3)c2)s1,> 80 µM (inactive)
11,COc1cc(CN2CCCC(C(=O)c3ccc4c5c(cccc35)CC4)C2)cc(OC)c1O (configuration not stated),> 80 µM (inactive)
12,C=CCc1ccccc1OCC(=O)N/N=C/c1ccccc1OCC,> 80 µM (inactive)
13,COc1cc(NC(C)CCc2ccccc2)cc(OC)c1OC (configuration not stated),> 80 µM (inactive)
14,CCn1c([N+](=O)[O-])nc2c1c(=O)[nH]c(=O)n2C,> 80 µM (inactive)
15,Cn1sc2ccccc2c1=O,52.3 µM
16,CC(=O)Nc1cc(OC(C)=O)c2nonc2c1OC(C)=O,> 80 µM (inactive)
17,Clc1ccc2nc(-c3ccc(Br)s3)cn2c1,> 80 µM (inactive)
18,Cc1ccc(S(=O)(=O)NNc2ccccc2)cc1,37.9 µM
